From US20170193176A1, “System, Method, and Software for Improved Drug Efficacy and Safety in a Patient” (Insilico Medicine, Inc., priority 2015, published 2017) come the findings set out here.

Molecules are shown by their SMILES.

The subject of this assay is renal cancer patients. The assay is described as follows: Clinical outcome of renal cancer patients treated with targeted drugs (nibs). The note with it: for # of transcriptomes taken from responders: sustained stabilization of tumor progress; for # of transcriptomes taken from non-responders: tumor progression despite the applied treatment. It is filed as in vivo, human. On the procedure:
A set of samples taken from the tumors of renal cancer patients who were treated at Clinical Hospital of the Hertzen Cancer Institute in Moscow. These samples were examined using the Illumina HT-12 platform at Medical Center of Lethbridge University in Canada. As a reference normal renal tissue, the dataset GSE49972 (Karlsson et al., 2014) obtained on the same platform, was used. […] The overview of renal cancer transcriptomes selected for the V-dataset, is shown below in Table 3.
As an example, we list here the details of case history for one of the patient, who has been a responder to Sunitinib treatment.
Person; the clear cell cancer in left kidney; disease progression stage T3N0M1, distant metastases to lungs and skeleton. Surgery has not been performed due to the overall progression of the disease. Before the chemotherapy for distant metastases, the patient received the symptomatic radiation therapy of 30 Gy on the pelvic and femoral zone. Two months after the patient received the neo-adjuvant Sunitinib therapy in overall dose of 50 mg.
As long as two years after the treatment, the patient was still alive and continued to receive the adjuvant Sunitinib therapy.

Turning to `Cc1ccc(Nc2nccc(N(C)c3ccc4c(C)n(C)nc4c3)n2)cc1S(N)(=O)=O` [Pazopanib], the “# of transcriptomes taken from responders” value was 4 and the “# of transcriptomes taken from non-responders” value worked out at 3.

Consider `CNC(=O)c1cc(Oc2ccc(NC(=O)Nc3ccc(Cl)c(C(F)(F)F)c3)cc2)ccn1` [Sorafenib], for which the “# of transcriptomes taken from responders” value was 13 and the “# of transcriptomes taken from non-responders” value is on record as 15.

As for `CCN(CC)CCNC(=O)c1c(C)[nH]c(/C=C2\C(=O)Nc3ccc(F)cc32)c1C` [Sunitinib], the “# of transcriptomes taken from responders” value is given as 5 and the “# of transcriptomes taken from non-responders” value is recorded as 10.
